Converted amounts (≈) assume the structure as drawn. Read-outs that look alike come from different tables or passages of the source.
Assays:
Format in all cases: cell-based
[1] = tested on: Staphylococcus aureus Strain 1 (BSAC04(1)) (Clinical isolate from Glasgow Royal Infirmary); experiment: MIC, Staphylococcus aureus Strain 1; details: Staphylococcus aureus, read-out: Minimum inhibitory concentrations (MICs), S aureus 1
Description: The effects of compounds of the invention in relation to inhibiting the growth of various microorganisms was determined using methods known to those skilled in the art, for example in vitro methods as described in J. Med. Chem. 47, 2133-2156 (2004) and in vivo methods as described in J. Med. Microbiol. 46, 208-213 (1997), the disclosures of which documents are hereby incorporated by reference.
In particular, minimum inhibitory concentrations (MICs) against microorganisms (e.g. S. Aureus, Streptococcus faecalis, Aspergillus niger, Candida albicans or Mycobacterium fortuitum) for compounds of the invention may be measured using procedures such as those described in A. J. Drummond and R. D. Waigh “The development of microbiological methods for phytochemical screening” Recent Res. Devel. Phytochem. 4, 143-152 (2000), the disclosures of which document are hereby incorporated by reference.
Sample dilutions were typically prepared by dissolving the test sample (2 mg) in sterile water (10 mL) to provide a working concentration of 200 μg/ml. The test wells on each 96 well microtitre plate were initially inoculated with culture medium (100 μL) using Mueller-Hinton Broth for antibacterial assays and Sabouraud Broth for antifungal assays. A solution of each test sample (100 μL) was added to one row of each plate and a series of doubling dilutions made for successive rows. Incubation was at 37° C. for antibacterial assay and 25° C. for antifungal assay. […] From the observed pattern of colour, the MIC was determined. All tests included sterility and growth controls.

[2] = tested on: Staphylococcus aureus Strain 2 (NCTC 6571); experiment: MIC, Staphylococcus aureus Strain 2; details: for MIC: read-out: Minimum inhibitory concentrations (MICs), S. aureus 2
Description: (§1) The effects of compounds of the invention in relation to inhibiting the growth of various microorganisms was determined using methods known to those skilled in the art, for example in vitro methods as described in J. Med. Chem. 47, 2133-2156 (2004) and in vivo methods as described in J. Med. Microbiol. 46, 208-213 (1997), the disclosures of which documents are hereby incorporated by reference. In particular, minimum inhibitory concentrations (MICs) against microorganisms (e.g. S. Aureus, Streptococcus faecalis, Aspergillus niger, Candida albicans or Mycobacterium fortuitum) for compounds of the invention may be measured using procedures such as those described in A. J. Drummond and […] development of microbiological methods for phytochemical screening” Recent Res. Devel. […] The test wells on each 96 well microtitre plate were initially inoculated with culture medium (100 μL) using Mueller-Hinton Broth for antibacterial assays and Sabouraud Broth for antifungal assays. A solution of each test sample (100 μL) was added to one row of each plate and a series of doubling dilutions made for successive rows. Incubation was at 37° C. for antibacterial assay and 25° C. for antifungal assay. […] From the observed pattern of colour, the MIC was determined. All tests included sterility and growth controls.

[3] = tested on: Streptococcus faecalis (NCTC 775); experiment: MIC, Streptococcus faecalis; details: for MIC: read-out: Minimum inhibitory concentrations (MICs), St. faecalis
Description: as §1

[4] = tested on: Aspergillus niger (IMI 1745); experiment: MIC, Aspergillus niger; details: for MIC: read-out: Minimum inhibitory concentrations (MICs), A. niger
Description: as §1

[5] = tested on: Candida albicans (NCPF3179); experiment: MIC, Candida albicans; details: for MIC: read-out: Minimum inhibitory concentrations (MICs), C. albicans
Description: as §1

[6] = value in parentheses, na = not active
[7] = Staphylococcus aureus, NCTC6571, value in parentheses, na = not active
[8] = Staphylococcus aureus, NCTC6571, value outside parentheses
[9] = Enterococcus faecalis, NCTC775, value in parentheses, na = not active
[10] = Enterococcus faecalis, NCTC775, value outside parentheses
[11] = Aspergillus niger, value in parentheses, na = not active
[12] = Aspergillus niger, value outside parentheses
[13] = Candida albicans, NCPF3179, value in parentheses, na = not active
[14] = Candida albicans, NCPF3179, value outside parentheses

| SMILES | MIC [1, 6] | MIC ([1]; value outside parentheses) | MIC [2, 7] | MIC [2, 8] | MIC [3, 9] | MIC [3, 10] | MIC [4, 11] | MIC [4, 12] | also measured |
| --- | --- | --- | --- | --- | --- | --- | --- | --- | --- |
| COc1cccc(/C=C/c2ccc(C(=O)Nc3cc(C(=O)Nc4cc(C(=O)NCCN5CCOCC5)n(C)c4)n(C)c3)cc2)c1 [Example 1, 4-({[4-({4-[(E)-2-(3-Methoxyphenyl)ethenyl]benzoyl}amino)-1-methyl-1H-pyrrol-2-yl]carbonyl}amino)-1-methyl-N-[2-(4-morpholinyl)ethyl]-1H-pyrrole-2-carboxamide] | 2 mg/L | 2.7 µM | 8 mg/L | 11 µM | 50 mg/L | 69 µM | 100 mg/L | 138 µM |  |
| Cn1cccc1/C=C/c1ccc(C(=O)Nc2cc(C(=O)Nc3cc(C(=O)NCCN4CCOCC4)n(C)c3)n(C)c2)cc1 [Example 3, 1-Methyl-N-[1-methyl-5-({[2-(4-morpholinyl)ethyl]amino}carbonyl)-1H-pyrrol-3-yl]-4-({4-[(E)-2-(1-methyl-1H-pyrrol-2-yl)ethenyl]benzoyl}amino)-1H-pyrrole-2-carboxamide] | 4 mg/L | 5.7 µM | 16 mg/L | 22.9 µM | 12.5 mg/L | 16.4 µM | 100 mg/L | 143 µM |  |
| COc1cccc(/C=C/c2ccc(C(=O)Nc3cc(C(=O)Nc4cc(C(=O)NCCCN(C)C)n(C)c4)n(C)c3)cc2)c1 [Example 4, N-[5-({[3-(Dimethylamino)propyl]amino}carbonyl)-1-methyl-1H-pyrrol-3-yl]-4-({4-[(E)-2-(3-methoxyphenyl)ethenyl]benzoyl}amino)-1-methyl-1H-pyrrole-2-carboxamide] | 6.25 mg/L | 8.9 µM | 12.5 mg/L | 17.9 µM |  |  | 50 mg/L | 72 µM | MIC [5, 13]: 100 mg/L; MIC [5, 14]: 143 µM |
| CN(C)CCCNC(=O)c1cc(NC(=O)c2cc(NC(=O)c3ccc(/C=C/c4cnc5ccccc5c4)cc3)cn2C)cn1C [Example 5, N-[5-({[3-(Dimethylamino)propyl]amino}carbonyl)-1-methyl-1H-pyrrol-3-yl]-1-methyl-4-({4-[(E)-2-(3-quinolinyl)ethenyl]benzoyl}amino)-1H-pyrrole-2-carboxamide] | 25 mg/L | 35 µM | 25 mg/L | 35 µM | 50 mg/L | 70 µM | 50 mg/L | 70 µM |  |
| COc1cccc(/C=C/c2cccc(C(=O)Nc3cc(C(=O)Nc4cc(C(=O)NCCCN(C)C)n(C)c4)n(C)c3)c2)c1 [Example 6] |  |  |  |  |  |  |  |  | Minimum inhibitory concentrations (MICs), S. aureus 2 [2, 6]: 50 mg/L (≈ 85.8 µM); MIC ([2]; value outside parentheses): 72 µM; Minimum inhibitory concentrations (MICs), St. faecalis [3, 6]: 50 mg/L (≈ 85.8 µM); MIC ([3]; value outside parentheses): 72 µM; Minimum inhibitory concentrations (MICs), A. niger [4, 6]: 100 mg/L (≈ 172 µM); MIC ([4]; value outside parentheses): 143 µM |
| CN(C)CCCNC(=O)c1cc(NC(=O)c2cc(NC(=O)c3ccc(/C=C/c4ccncc4)cc3)cn2C)cn1C [Example 7, N-[5-({[3-(Dimethylamino)propyl]amino}carbonyl)-1-methyl-1H-pyrrol-3-yl]-1-methyl-4-({4-[(E)-2-(4-pyridinyl)ethenyl]benzoyl}amino)-1H-pyrrole-2-carboxamide] | 16 mg/L | 24 µM | 50 mg/L | 75 µM | 25 mg/L | 37 µM |  |  |  |
| CN(C)CCCNC(=O)c1cc(NC(=O)c2cc(NC(=O)c3cc(/C=C/c4ccc([N+](=O)[O-])cc4)cn3C)cn2C)cn1C [Example 8, N-[5-({[5-({[3-(Dimethylamino)propyl]amino}carbonyl)-1-methyl-1H-pyrrol-3-yl]amino}carbonyl)-1-methyl-1H-pyrrol-3-yl]-1-methyl-4-[(E)-2-(4-nitrophenyl)-ethenyl]-1H-pyrrole-2-carboxamide] |  |  | 50 mg/L | 70 µM | 50 mg/L | 70 µM | 100 mg/L | 140 µM |  |
| Cn1cc(NC(=O)c2cc(NC(=O)c3cc(/C=C/c4ccc5ccccc5n4)cn3C)cn2C)cc1C(=O)NCCN1CCOCC1 [Example 11, 1-Methyl-N-[1-methyl-5-({[2-(4-morpholinyl)ethyl]amino}carbonyl)-1H-pyrrol-3-yl]-4-[({1-methyl-4-[(E)-2-(2-quinolinyl)ethenyl]-1H-pyrrol-2-yl}carbonyl)-amino]-1H-pyrrole-2-carboxamide] | 4 mg/L | 4.6 µM |  |  |  |  |  |  | MIC [5, 13]: 100 mg/L; MIC [5, 14]: 134 µM |
| Cn1cc(NC(=O)c2cc(NC(=O)c3csc(/C=C/c4ccc5ccccc5n4)n3)cn2C)cc1C(=O)NCCN1CCOCC1 [Example 12, N-[1-Methyl-5-({[1-methyl-5-({[2-(4-morpholinyl)ethyl]amino}carbonyl)-1H-pyrrol-3-yl]amino}carbonyl)-1H-pyrrol-3-yl]-2-[(E)-2-(2-quinolinyl)ethenyl]-1,3-thiazole-4-carboxamide] | 8 mg/L | 10 µM |  |  |  |  |  |  |  |
| Cn1cc(NC(=O)c2cc(NC(=O)c3ccc(/C=C/c4ccc5ccccc5c4)cc3)cn2C)cc1C(=O)NCCN1CCOCC1 [Example 13, 1-Methyl-N-[1-methyl-5-({[2-(4-morpholinyl)ethyl]amino}carbonyl)-1H-pyrrol-3-yl]-4-({4-[(E)-2-(2-naphthyl)ethenyl]benzoyl}amino)-1H-pyrrole-2-carboxamide] |  |  | 50 mg/L | 68 µM | 100 mg/L | 136 µM | 100 mg/L | 136 µM |  |
| Cn1cc(NC(=O)c2cc(NC(=O)c3ccc(/C=C/c4cc5ccccc5nc4On4nnc5ccccc54)cc3)cn2C)cc1C(=O)NCCN1CCOCC1 [Example 14, 4-[(4-{(E)-2-[2-(1H-1,23-Benzotriazol-1-yloxy)-3-quinolinyl]ethenyl}benzoyl)-amino]-1-methyl-N-[1-methyl-5-({[2-(4-morpholinyl)ethyl]amino}carbonyl)-1H-pyrrol-3-yl]-1H-pyrrole-2-carboxamide] |  |  |  |  |  |  |  |  | Minimum inhibitory concentrations (MICs), S. aureus 2 [2, 6]: 50 mg/L (≈ 65.4 µM); MIC ([2]; value outside parentheses): 57 µM; Minimum inhibitory concentrations (MICs), St. faecalis [3, 6]: 100 mg/L (≈ 131 µM); MIC ([3]; value outside parentheses): 114 µM; Minimum inhibitory concentrations (MICs), C. albicans [5, 6]: 100 mg/L (≈ 131 µM); MIC ([5]; value outside parentheses): 114 µM; Minimum inhibitory concentrations (MICs), A. niger [4, 6]: 50 mg/L (≈ 65.4 µM); MIC ([4]; value outside parentheses): 57 µM |
| Cn1cc(NC(=O)c2cc(NC(=O)c3ccc(/C=C/c4ccc5ccccc5n4)cc3)cn2C)cc1C(=O)NCCN1CCOCC1 [Example 15] |  |  |  |  |  |  |  |  | Minimum inhibitory concentrations (MICs), S. aureus 2 [2, 6]: 100 mg/L (≈ 158 µM); MIC ([2]; value outside parentheses): 134 µM; Minimum inhibitory concentrations (MICs), C. albicans [5, 6]: 100 mg/L (≈ 158 µM); MIC ([5]; value outside parentheses): 134 µM; Minimum inhibitory concentrations (MICs), A. niger [4, 6]: 100 mg/L (≈ 158 µM); MIC ([4]; value outside parentheses): 134 µM |
| CC(C)CCc1sc(NC(=O)c2cc(NC(=O)c3ccc(/C=C/c4ccc5ccccc5n4)cc3)cn2C)nc1C(=O)NCCN1CCOCC1 [Example 19, 5-Isopentyl-2-({[1-methyl-4-({4-[(E)-2-(2-quinolinyl)ethenyl]benzoyl}amino)-1H-pyrrol-2-yl]carbonyl}amino)-N-[2-(4-morpholinyl)ethyl]-1,3-thiazole-4-carboxamide] |  |  |  |  |  |  | 100 mg/L | 122 µM |  |
